In patent US20070167462A1, “Fungicidal mixtures” (priority 2004, published 2007):

System: Corticium sasakii
Test: Activity against sheath blight on rice caused by Corticium sasakii (protective spray, rice plants cultivar Tai-Nong 67)
Format: in vivo
Details: untreated control 90% infection
Procedure: The active compounds, separately or jointly, were prepared as a stock solution comprising 0.25% by weight of active compound in acetone or DMSO. 1% by weight of the emulsifier Uniperol® EL (wetting agent having emulsifying and dispersing action based on ethoxylated alkylphenols) was added to this solution, and the mixture was diluted with water accordingly to the desired concentration.
Use example—Activity against sheath blight on rice caused by Corticium sasakii
Pots of rice plants of the cultivar “Tai-Nong 67” were sprayed to runoff point with an aqueous suspension having the concentration of active compound stated below. The next day, oat grains infected with Corticium sasakii were planted in the pots (in each case 5 grains per pot). The plants were then placed in a chamber at 26° C. and maximum atmospheric humidity. After […], the sheath blight on the untreated but infected control plants had developed to such an extent that the infection could be determined visually in %.
Evaluation is carried out by determining the infected leaf areas in percent. These percentages were converted into efficacies.
The efficacy (E) is calculated as follows using Abbot's formula: E=(1−αβ)·100 • α corresponds to the fungal infection of the treated plants in % and • β corresponds to the fungal infection of the untreated (control) plants in %
An efficacy of 0 means that the infection level of the treated plants corresponds to that of the untreated control plants; an efficacy of 100 means that the treated plants are not infected.
The expected efficacies of the mixtures of active compounds are determined using Colby's formula [R. S. Colby, Weeds, 15, 20-22 (1967)] and are compared with the observed efficacies.
Colby's formula: E=x+y−x·y/100 • E expected efficacy, expressed in % of the untreated control, when using the mixture of the active compounds A and B at the concentrations a and b • x efficacy, expressed in % of the untreated control, when using the active compound A at the concentration a
y efficacy, expressed in % of the untreated control, when using the active compound B at the concentration b

[1] = 4 ppm active compound in the spray liquor
[2] = 16 ppm active compound in the spray liquor

SMILES: CC1CCN(c2c(-c3c(F)cc(F)cc3F)c(Cl)nc3ncnn23)CC1 [compound I, 5-chloro-7-(4-methylpiperidin-1-yl)-6-(2,4,6-trifluorophenyl)-[1,2,4]tri-azolo[1,5-a]pyrimidine]
- Efficacy in % of the untreated control [1]: 31%
- Efficacy in % of the untreated control [2]: 65%

SMILES: CC(C)Oc1cccc(NC(=O)c2ccccc2C(F)(F)F)c1 [II (flutolanil), N-(3-isopropoxyphenyl)-2-trifluoromethylbenzamide]
- Efficacy in % of the untreated control [1]: 0%
- Efficacy in % of the untreated control [2]: 31%
